{"source": "patent US20160339080A1", "about": "“METHODS AND PHARMACEUTICAL COMPOSITIONS FOR THE TREATMENT OF HEPATOCELLULAR CARCINOMAS” (INSERM (INSTITUT NATIONAL DE LA SANTÉ ET DE LA RECHERCHE …, priority 2014, published 2016)", "tested_on": "SK-HEP-1 cells", "test": "SK-HEP-1 cell growth (trypan blue-excluding adherent cells counted) and apoptosis", "assay_type": "cell-based, human", "conditions": "NSC-87877 50 μM with 1 μM orexin-A, 48 h", "experimental": "FIG. 1. […] SK-HEP-1 cells were challenged with (black) or without (white) 1 μM orexin-A for 48 h in the absence (wo) or presence of NSC-87877 (50 μM). At the end of the treatment, adherent cells were trypsinized, and cells excluding trypan blue were counted to measure SK-HEP-1 cell growth. Panel B : Effect of orexin-A inoculation on the growth of tumors developed by xenografting human HCC cancer cells SK-HEP-1 in nude mice. SK-HEP-1 cells were inoculated in the flank of nude mice at day 0. Mice were 2 times a week injected intraperitoneally with 100 μL of orexin-A (0,23 μmol/kg) solutions starting at day 0 (white circle) or day 22 (triangle) or with […] of PBS (black circle) for controls.\nOrexins are hypothalamic peptides involved in sleep/wake control. We have shown that orexins promote robust apoptosis in colorectal cancer cells (Voisin T, El Firar A, Fasseu M, Rouyer-Fessard C, Descatoire V, Walker F, Paradis V, Bedossa P, Henin D, Lehy T, Laburthe M. (2011) Aberrant expression of OX1 receptors for orexins in colon cancers and liver metastases: an openable gate to apoptosis. Cancer Res. 71:3341-51.). […]"}
{"smiles": "O=S(=O)(O)c1ccc2cc(N=Nc3cc(S(=O)(=O)O)c4cccnc4c3O)ccc2c1", "note": "[NSC-87877]", "values": [{"measurement": "block of orexin-induced SK-HEP-1 growth inhibition", "result": "blocks orexin-induced SK-HEP-1 growth inhibitory"}, {"measurement": "reversal of orexin-induced apoptosis", "result": "reverse orexin-induced apoptosis"}]}
